Results from patent publication US20230271964A1, “5-AMINO-8-(4-PYRIDYL)-[1,2,4]TRIAZOLO[4,3-C]PYRIMIDIN-3-ONE COMPOUNDS FOR USE AGAINST CANCER” (ASTRAZENECA AB, priority 2020, published 2023).

Legend:
[1] = target: human adenosine A1 receptor (Homo sapiens (Human), UniProt P30542); assay: Adenosine receptor inhibition binding assay, [3H]DPCPX, A1 receptor membranes; conditions: 1 nM [3H]DPCPX, 25° C., 1 h, Ki from IC50 by Cheng-Prusoff; for Ki: read-out: A1 pKi (converted)
Description: (§1) Inhibition binding assays were performed using 0.2 µg of membranes prepared from HEK293 cells infected with BacMam human adenosine A2A receptor or 1.4 µg of membranes prepared from HEK293 cells infected with BacMam human adenosine A1 receptor. Membranes were incubated in 50 mM Tris-HCl (HEK293-hA2A; pH 7.4) or 50 mM Tris-HCl, 100 mM NaCl, 10 mM MgCl2 (CHO-hA1; pH 7.4) in the presence of varying concentrations of test compound and 1 nM [^3H]ZM241385 (HEK293-hA2A) or [^3H]DPCPX (CHO-hA1) at 25° C. for 1 h. The assay was then terminated by rapid filtration onto GF/B grade Unifilter plates using a TomTec cell harvester, followed by 5 × 0.5 ml washes with ddH2O. Nonspecific binding was defined in the presence of 1 µM CGS 15943 (HEK293-hA2A) or 1 µM DPCPX (CHO-hA1). Bound radioactivity was determined by liquid scintillation counting and inhibition curves were analysed using a four-parameter logistic equation. IC50 values were converted to Ki values with the Cheng-Prusoff equation using a KD value derived from saturation binding studies.

[2] = target: human adenosine A2A receptor (Homo sapiens (Human), UniProt P29274); assay: Adenosine receptor inhibition binding assay, [3H]ZM241385, HEK293 A2A receptor membranes; conditions: 1 nM [3H]ZM241385, HEK293-hA2A membranes, 25° C., 1 h, Ki from IC50 by Cheng-Prusoff; for Ki: read-out: A2A pKi (converted)
human adenosine A2A receptor, sequence (P29274 whole entry): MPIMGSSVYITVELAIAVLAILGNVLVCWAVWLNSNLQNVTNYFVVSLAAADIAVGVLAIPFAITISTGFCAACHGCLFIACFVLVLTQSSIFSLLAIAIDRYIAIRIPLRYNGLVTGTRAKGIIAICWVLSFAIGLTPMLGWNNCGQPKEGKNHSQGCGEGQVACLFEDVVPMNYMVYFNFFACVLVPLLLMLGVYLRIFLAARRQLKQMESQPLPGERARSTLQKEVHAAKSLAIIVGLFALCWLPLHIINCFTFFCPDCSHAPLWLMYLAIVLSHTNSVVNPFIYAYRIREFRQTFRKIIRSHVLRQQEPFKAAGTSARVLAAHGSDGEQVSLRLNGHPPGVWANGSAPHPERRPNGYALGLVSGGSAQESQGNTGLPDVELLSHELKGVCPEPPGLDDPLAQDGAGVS
Description: as §1

human adenosine A1 receptor, sequence (P30542 whole entry): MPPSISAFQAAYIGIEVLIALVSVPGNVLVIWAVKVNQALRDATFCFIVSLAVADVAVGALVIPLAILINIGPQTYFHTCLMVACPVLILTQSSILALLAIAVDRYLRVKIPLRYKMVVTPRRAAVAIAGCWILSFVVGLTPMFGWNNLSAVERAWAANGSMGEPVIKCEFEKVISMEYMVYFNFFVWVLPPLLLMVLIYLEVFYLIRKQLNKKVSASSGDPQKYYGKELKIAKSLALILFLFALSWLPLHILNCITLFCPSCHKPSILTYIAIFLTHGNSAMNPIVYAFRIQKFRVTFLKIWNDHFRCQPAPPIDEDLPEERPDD

Row | Compound | A1 pKi [1] | A2A pKi [2] | Ki [1] [nM] | Ki [2] [nM]
1 | Cc1cc(-c2c(-c3ccccc3)nc(N)n3c(=O)n(Cc4ccn[nH]4)nc23)cc(C)n1 [Example 1-25, 5-amino-8-(2,6-dimethyl-4-pyridyl)-7-phenyl-2-(1H-pyrazol-5-ylmethyl)-[1,2,4]triazolo[4,3-c]pyrimidin-3-one] | 7.1 | 8.6 | – | –
2 | Cc1cc(-c2c(-c3ccccc3)nc(N)n3c(=O)n(Cc4nn[nH]n4)nc23)cc(C)n1 [Example 1-26, 5-amino-8-(2,6-dimethyl-4-pyridyl)-7-phenyl-2-(2H-tetrazol-5-ylmethyl)-[1,2,4]triazolo[4,3-c]pyrimidin-3-one] | <5.4 | 6.4 | – | –
3 | Cc1cc(-c2c(-c3ccccc3)nc(N)n3c(=O)n(Cc4nnco4)nc23)cc(C)n1 [Example 1-27, 5-amino-8-(2,6-dimethyl-4-pyridyl)-2-(1,3,4-oxadiazol-2-ylmethyl)-7-phenyl-[1,2,4]triazolo[4,3-c]pyrimidin-3-one] | 6.6 | 8.1 | – | –
4 | Cc1cc(-c2c(-c3ccccc3)nc(N)n3c(=O)n(Cc4nncn4C)nc23)cc(C)n1 [Example 1-28, 5-amino-8-(2,6-dimethyl-4-pyridyl)-2-[(4-methyl-1,2,4-triazol-3-yl)methyl]-7-phenyl-[1,2,4]triazolo[4,3-c]pyrimidin-3-one] | 6.5 | 7.7 | – | –
5 | Cc1cc(-c2c(-c3ccccc3)nc(N)n3c(=O)n(Cc4nn[nH]c4C)nc23)cc(C)n1 [Example 1-29, 5-amino-8-(2,6-dimethylpyridin-4-yl)-2-((5-methyl-1H-1,2,3-triazol-4-yl)methyl)-7-phenyl-[1,2,4]triazolo[4,3-c]pyrimidin-3(2H)-one] | 7.0 | 8.6 | – | –
6 | Cc1cc(-c2c(-c3ccccc3)nc(N)n3c(=O)n(Cc4cnn(C)n4)nc23)cc(C)n1 [Example 1-30, 5-amino-8-(2,6-dimethyl-4-pyridyl)-2-[(2-methyltriazol-4-yl)methyl]-7-phenyl-[1,2,4]triazolo[4,3-c]pyrimidin-3-one] | 6.6 | 8.9 | – | –
7 | Cc1cc(-c2c(-c3ccc(F)cc3)nc(N)n3c(=O)n(Cc4nc(C)oc4C)nc23)cc(C)n1 [Example 1-32, 5-amino-2-[(2,5-dimethyloxazol-4-yl)methyl]-8-(2,6-dimethyl-4-pyridyl)-7-(4-fluorophenyl)-[1,2,4]triazolo[4,3-c]pyrimidin-3-one] | 7.0 | 9.5 | – | –
8 | COc1cccc(-c2nn(Cc3ccccc3)cc2Cn2nc3c(-c4cc(C)nc(C)c4)c(-c4ccccc4)nc(N)n3c2=O)c1 [Example 1-33, 5-amino-2-[[1-benzyl-3-(3-methoxyphenyl)pyrazol-4-yl]methyl]-8-(2,6-dimethyl-4-pyridyl)-7-phenyl-[1,2,4]triazolo[4,3-c]pyrimidin-3-one] | 7.1 | 8.1 | – | –
9 | Cc1ocnc1Cn1nc2c(-c3cc(C)[n+]([O-])c(C)c3)c(-c3ccccc3)nc(N)n2c1=O [Example 1-34, 5-amino-8-(2,6-dimethyl-1-oxido-pyridin-1-ium-4-yl)-2-[(5-methyloxazol-4-yl)methyl]-7-phenyl-[1,2,4]triazolo[4,3-c]pyrimidin-3-one] | 7.5 | 9.2 | – | –
10 | Cc1cc(-c2c(-c3ccccc3)nc(N)n3c(=O)n(Cc4ncoc4C)nc23)cc(CO)n1 [Example 1-39, 5-amino-8-[2-(hydroxymethyl)-6-methyl-4-pyridyl]-2-[(5-methyloxazol-4-yl)methyl]-7-phenyl-[1,2,4]triazolo[4,3-c]pyrimidin-3-one] | 6.8 | 9.5 | – | –
11 | Cc1cc(-c2c(-c3ccccc3)nc(N)n3c(=O)n(Cc4ncco4)nc23)cc(CO)n1 [Example 1-40, 5-amino-8-[2-(hydroxymethyl)-6-methyl-4-pyridyl]-2-(oxazol-2-ylmethyl)-7-phenyl-[1,2,4]triazolo[4,3-c]pyrimidin-3-one] | 6.9 | 8.8 | – | –
12 | Cc1cc(-c2c(-c3ccccc3)nc(N)n3c(=O)n(Cc4nccn4C)nc23)cc(CO)n1 [Example 1-41, 5-amino-8-[2-(hydroxymethyl)-6-methyl-4-pyridyl]-2-[(1-methylimidazol-2-yl)methyl]-7-phenyl-[1,2,4]triazolo[4,3-c]pyrimidin-3-one] | 7.2 | 9.1 | – | –
13 | Cc1cc(-c2c(-c3ccccc3)nc(N)n3c(=O)n(Cc4cocn4)nc23)cc(CO)n1 [Example 1-42, 5-amino-8-[2-(hydroxymethyl)-6-methyl-4-pyridyl]-2-(oxazol-4-ylmethyl)-7-phenyl-[1,2,4]triazolo[4,3-c]pyrimidin-3-one] | 6.7 | 8.5 | – | –
14 | Cc1cc(-c2c(-c3ccccc3)nc(N)n3c(=O)n(Cc4c(C)ncn4C)nc23)cc(CO)n1 [Example 1-44, 5-amino-2-[(3,5-dimethylimidazol-4-yl)methyl]-8-[2-(hydroxymethyl)-6-methyl-4-pyridyl]-7-phenyl-[1,2,4]triazolo[4,3-c]pyrimidin-3-one] | 6.8 | 8.4 | – | –
15 | Cc1cc(-c2c(-c3ccccc3)nc(N)n3c(=O)n(Cc4ccn(C)n4)nc23)cc(CO)n1 [Example 1-45, 5-amino-8-[2-(hydroxymethyl)-6-methyl-4-pyridyl]-2-[(1-methylpyrazol-3-yl)methyl]-7-phenyl-[1,2,4]triazolo[4,3-c]pyrimidin-3-one] | 7.2 | 9.3 | – | –
16 | [2H]c1c([2H])c([2H])c(-c2nc(N)n3c(=O)n(Cc4ncoc4C)nc3c2-c2cc(C)nc(CO)c2)c([2H])c1[2H] [Example 1-47, 5-amino-8-[2-(hydroxymethyl)-6-methyl-4-pyridyl]-2-[(5-methyloxazol-4-yl)methyl]-7-(2,3,4,5,6-pentadeuteriophenyl)-[1,2,4]triazolo[4,3-c]pyrimidin-3-one] | – | – | 158 | 0.316
17 | [2H]c1c([2H])c([2H])c(-c2nc(N)n3c(=O)n(Cc4nccn4C)nc3c2-c2cc(C)nc(CO)c2)c([2H])c1[2H] [Example 1-48, 5-amino-8-[2-(hydroxymethyl)-6-methyl-4-pyridyl]-2-[(1-methylimidazol-2-yl)methyl]-7-(2,3,4,5,6-pentadeuteriophenyl)-[1,2,4]triazolo[4,3-c]pyrimidin-3-one] | – | – | 158 | 1.26
18 | [2H]c1c([2H])c([2H])c(-c2nc(N)n3c(=O)n(Cc4cocn4)nc3c2-c2cc(C)nc(CO)c2)c([2H])c1[2H] [Example 1-49, 5-amino-8-[2-(hydroxymethyl)-6-methyl-4-pyridyl]-2-(oxazol-4-ylmethyl)-7-(2,3,4,5,6-pentadeuteriophenyl)-[1,2,4]triazolo[4,3-c]pyrimidin-3-one] | – | – | 316 | 1.58
19 | Cc1ocnc1Cn1nc2c(-c3cc(Cl)nc(CO)c3)c(-c3ccccc3)nc(N)n2c1=O [Example 1-54, 5-amino-8-[2-chloro-6-(hydroxymethyl)-4-pyridyl]-2-[(5-methyloxazol-4-yl)methyl]-7-phenyl-[1,2,4]triazolo[4,3-c]pyrimidin-3-one] | 7.2 | 9.7 | – | –
20 | [2H]c1c([2H])c([2H])c(-c2nc(N)n3c(=O)n(Cc4nccn4C)nc3c2-c2cc(Cl)nc(CO)c2)c([2H])c1[2H] [Example 1-56, 5-amino-8-[2-chloro-6-(hydroxymethyl)-4-pyridyl]-2-[(1-methylimidazol-2-yl)methyl]-7-(2,3,4,5,6-pentadeuteriophenyl)-[1,2,4]triazolo[4,3-c]pyrimidin-3-one] | – | – | 5.01 | 0.158
21 | [2H]c1c([2H])c([2H])c(-c2nc(N)n3c(=O)n(Cc4ncoc4C)nc3c2-c2cc(Cl)nc(CO)c2)c([2H])c1[2H] [Example 1-57, 5-amino-8-[2-chloro-6-(hydroxymethyl)-4-pyridyl]-2-[(5-methyloxazol-4-yl)methyl]-7-(2,3,4,5,6-pentadeuteriophenyl)-[1,2,4]triazolo[4,3-c]pyrimidin-3-one] | – | – | 126 | 0.1
22 | Cc1ocnc1Cn1nc2c(-c3cc(Cl)nc(CO)c3)c(-c3ccc(F)cc3)nc(N)n2c1=O [Example 1-59, 5-amino-8-[2-chloro-6-(hydroxymethyl)-4-pyridyl]-7-(4-fluorophenyl)-2-[(5-methyloxazol-4-yl)methyl]-[1,2,4]triazolo[4,3-c]pyrimidin-3-one] | 6.8 | 9.9 | – | –
23 | [2H]c1c([2H])c([2H])c(-c2nc(N)n3c(=O)n(Cc4nccn4C)nc3c2-c2cc(CO)nc(OC)c2)c([2H])c1[2H] [Example 1-62, 5-amino-8-[2-(hydroxymethyl)-6-methoxy-4-pyridyl]-2-[(1-methylimidazol-2-yl)methyl]-7-(2,3,4,5,6-pentadeuteriophenyl)-[1,2,4]triazolo[4,3-c]pyrimidin-3-one] | – | – | 126 | 0.251
